Measured values as given in US20220409620A1, “REDUCING IMMUNOGENICITY TO PEGLOTICASE” (Horizon Pharma Rheumatology LLC, priority 2016, published 2022).

System: adult patients with uncontrolled gout
Assay: Serum uric acid (sUA) levels and sUA responder rate, open-label study of pegloticase with MTX (MIRROR OL)
Type: in vivo, human
Conditions: Month 6 sUA Responders
Protocol: The primary objective is to estimate the response rate during Month 6 (Weeks 20, 22, and 24), as measured by the sustained normalization of serum uric acid (SUA) to <6 mg/dL for at least 80% of the time during Month 6 in subjects receiving KXX with MTX.
The primary efficacy outcome endpoint is the sustained normalization of SUA to <6 mg/dL for at least 80% of the time during month 6 (weeks 20, 22, and 24) in subjects receiving KXX with MTX. […] Participants who achieve this endpoint were classified as “responders.” Serum uric acid (SUA) responders may also be defined as participants achieving and maintaining SUA <6 mg/dL for at least 80% of the time during Month 6 (Weeks 20, 22, and 24).
Blood samples may be collected prior to each pegloticase infusion for measurement of SUA levels using the Beckman Coulter AU System Uric Acid procedure. Participants were declared “non-responders” if there were SUA measures >6 mg/dL at 2 consecutive study visits beginning with the week 2 visit. […] This assumption and subsequent discontinuation of pegloticase was consistent with the protocol of large phase III randomized controlled trials and the product label. A formal stopping rule was 2 occasions of SUA levels of greater than 6 mg/dL.
Clinical Chemistry—Blood samples were collected prior to each pegloticase infusion for measurement of SUA levels (primary efficacy parameter) using the Beckman Coulter AU System Uric Acid procedure. In this procedure uric acid is converted to hydrogen peroxide. Hydrogen peroxide reacts with reagent to produce a chromophore which is read bichromatically at 660/800 nm. The amount of dye formed is proportional to the uric acid concentration in the sample.
Serum samples for measurement of SUA levels were collected at the Screening Visit, the Week −4 Visit (prior to the first dose of MTX), and the Week −2 Visit during the MTX Run-in Period; within 48 hours prior to each pegloticase infusion and after the end of each pegloticase infusion prior to discharge from the site during the Pegloticase+IMM Period; at the non-infusion Week 52/End of Study/Early Termination Visits and at the Post Treatment 3 and 6 Month Follow-up Visits. Additional serum samples for SUA levels were collected at optional non-infusion (Frequent Sampling) Visits at Weeks 1 and 7. […] Subjects with SUA level >6 mg/dL at 2 consecutive visits beginning at Week 2 visit discontinued treatment, completed the End of Pegloticase Infusion Visit procedures within 2 weeks and continued the subject visits according to the protocol (without treatment).
Efficacy analyses were performed using the modified intention-to-treat (mITT) population, defined as all enrolled subjects who received ≥1 dose of pegloticase. The proportion of Month 6 responders was summarized, along with a 95% confidence interval for the proportion. The proportion of Month 3 and overall (Months 3 and 6 combined) responders was analyzed similarly.
A subject was declared a non-responder if the subject had SUA level >6 mg/dL at 2 consecutive study visits beginning with the Week 2 Visit. In addition, a subject who withdraws from study treatment for any reason after the first dose of pegloticase in the KXX+MTX Period and prior to Month 6 (for the primary endpoint) or Month 3 (for the secondary endpoint) was considered a non-responder if SUA values were not collected at the planned time points.
Patients were administered oral MTX (15 mg/week) and folate (1 mg/day) 4 weeks prior to the first pegloticase infusion (Day 1) and throughout the pegloticase treatment period. Blood was drawn prior to each infusion to measure sUA level, monitor clinical parameters, and examine for ADA development. All patients followed typical IR prophylaxis protocols (fexofenadine one day before and the morning of each infusion and acetaminophen and IV corticosteroid the morning of each infusion).

pegloticase
-8.80 mg/dL: Serum Uric Acid, Change from Baseline, Median (Week 14-Pre-Infusion, n=11) | Serum Uric Acid, Change from Baseline, Median (Week 16-Post-Infusion, n=11) | Serum Uric Acid, Change from Baseline, Median (Week 16-Pre-Infusion, n=11) | Serum Uric Acid, Change from Baseline, Median (Week 18-Post-Infusion, n=11) | Serum Uric Acid, Change from Baseline, Median (Week 18-Pre-Infusion, n=11) | Serum Uric Acid, Change from Baseline, Median (Week 20-Post-Infusion, n=11) | Serum Uric Acid, Change from Baseline, Median (Week 20-Pre-Infusion, n=11) | Serum Uric Acid, Change from Baseline, Median (Week 22-Post-Infusion, n=11) | Serum Uric Acid, Change from Baseline, Median (Week 22-Pre-Infusion, n=11) | Serum Uric Acid, Change from Baseline, Median (Week 24-Pre-Infusion, n=11)
8 (100%): sUA <6 mg/dL, n (%) (Week 26-Pre-Infusion, n=8)
−9.11 (3.293) mg/dL: Serum Uric Acid, Change from Baseline, Mean (SD) (Week 26-Pre-Infusion, n=8) | Serum Uric Acid, Change from Baseline, Mean (SD) (Week 28-Pre-Infusion, n=8)
10 (100%): sUA <6 mg/dL, n (%) (Week 14-Post-Infusion, n=10)
−8.97 (2.810) mg/dL: Serum Uric Acid, Change from Baseline, Mean (SD) (Week 14-Pre-Infusion, n=11) | Serum Uric Acid, Change from Baseline, Mean (SD) (Week 16-Post-Infusion, n=11) | Serum Uric Acid, Change from Baseline, Mean (SD) (Week 16-Pre-Infusion, n=11) | Serum Uric Acid, Change from Baseline, Mean (SD) (Week 18-Post-Infusion, n=11) | Serum Uric Acid, Change from Baseline, Mean (SD) (Week 18-Pre-Infusion, n=11) | Serum Uric Acid, Change from Baseline, Mean (SD) (Week 20-Post-Infusion, n=11) | Serum Uric Acid, Change from Baseline, Mean (SD) (Week 20-Pre-Infusion, n=11) | Serum Uric Acid, Change from Baseline, Mean (SD) (Week 22-Pre-Infusion, n=11) | Serum Uric Acid, Change from Baseline, Mean (SD) (Week 24-Pre-Infusion, n=11)
0.30 (0.000) mg/dL: Serum Uric Acid, Observed, Mean (SD) (Week 14-Pre-Infusion, n=11) | Serum Uric Acid, Observed, Mean (SD) (Week 16-Post-Infusion, n=11) | Serum Uric Acid, Observed, Mean (SD) (Week 16-Pre-Infusion, n=11) | Serum Uric Acid, Observed, Mean (SD) (Week 18-Post-Infusion, n=11) | Serum Uric Acid, Observed, Mean (SD) (Week 18-Pre-Infusion, n=11) | Serum Uric Acid, Observed, Mean (SD) (Week 20-Post-Infusion, n=11) | Serum Uric Acid, Observed, Mean (SD) (Week 20-Pre-Infusion, n=11) | Serum Uric Acid, Observed, Mean (SD) (Week 22-Pre-Infusion, n=11) | Serum Uric Acid, Observed, Mean (SD) (Week 24-Post-Infusion, n=5) | Serum Uric Acid, Observed, Mean (SD) (Week 24-Pre-Infusion, n=11) | Serum Uric Acid, Observed, Mean (SD) (Week 26-Pre-Infusion, n=8)
5 (100%): sUA <6 mg/dL, n (%) (Week 24-Post-Infusion, n=5)
11(100%): sUA <6 mg/dL, n (%) (Week 22-Pre-Infusion, n=11)
0.30 mg/dL: Serum Uric Acid, Observed, Median (Week 14-Post-Infusion, n=10) | Serum Uric Acid, Observed, Median (Week 14-Pre-Infusion, n=11) | Serum Uric Acid, Observed, Median (Week 16-Post-Infusion, n=11) | Serum Uric Acid, Observed, Median (Week 16-Pre-Infusion, n=11) | Serum Uric Acid, Observed, Median (Week 18-Post-Infusion, n=11) | Serum Uric Acid, Observed, Median (Week 18-Pre-Infusion, n=11) | Serum Uric Acid, Observed, Median (Week 20-Post-Infusion, n=11) | Serum Uric Acid, Observed, Median (Week 20-Pre-Infusion, n=11) | Serum Uric Acid, Observed, Median (Week 22-Post-Infusion, n=11) | Serum Uric Acid, Observed, Median (Week 22-Pre-Infusion, n=11) | Serum Uric Acid, Observed, Median (Week 24-Post-Infusion, n=5) | Serum Uric Acid, Observed, Median (Week 24-Pre-Infusion, n=11) | Serum Uric Acid, Observed, Median (Week 26-Pre-Infusion, n=8)
-8.95 mg/dL: Serum Uric Acid, Change from Baseline, Median (Week 26-Pre-Infusion, n=8) | Serum Uric Acid, Change from Baseline, Median (Week 28-Pre-Infusion, n=8)
−9.18 (4.135) mg/dL: Serum Uric Acid, Change from Baseline, Mean (SD) (Week 24-Post-Infusion, n=5)
-9.30 mg/dL: Serum Uric Acid, Change from Baseline, Median (Week 24-Post-Infusion, n=5)
11 (100%): sUA <6 mg/dL, n (%) (Week 14-Pre-Infusion, n=11) | sUA <6 mg/dL, n (%) (Week 16-Post-Infusion, n=11) | sUA <6 mg/dL, n (%) (Week 16-Pre-Infusion, n=11) | sUA <6 mg/dL, n (%) (Week 18-Post-Infusion, n=11) | sUA <6 mg/dL, n (%) (Week 18-Pre-Infusion, n=11) | sUA <6 mg/dL, n (%) (Week 20-Post-Infusion, n=11) | sUA <6 mg/dL, n (%) (Week 20-Pre-Infusion, n=11) | sUA <6 mg/dL, n (%) (Week 22-Post-Infusion, n=11) | sUA <6 mg/dL, n (%) (Week 24-Pre-Infusion, n=11)
